The values below come from patent publication US20250051332A1 (priority 2022, published 2025).

The target of one series is T1, μOR (Homo sapiens, UniProt P35372).
T1 construct: host or cells: CHO-K1
In words: cell-based. The format is cell-based. As to conditions: for Emax: read-out: μOR cAMP inhibition Emax ± SEM (%).

Series [1] has as its target T2, κOR (Homo sapiens, UniProt P41145).
T2 construct: host or cells: CHO-K1
In words: cell-based. The format is cell-based. As to conditions: for Emax: read-out: κOR cAMP inhibition Emax ± SEM (%).

For a further series, the system named is 320 non-olfactory GPCRs. The series is described as follows: PRESTO-Tango GPCRome screen of βArr2 recruitment. It is filed as cell-based. As to conditions: 3 μM, FIG. 7.
The target of the next series is HERG (Homo sapiens, UniProt Q12809). As to conditions: data from reference 40; cited from earlier work.
Chain of HERG (Q12809 whole entry): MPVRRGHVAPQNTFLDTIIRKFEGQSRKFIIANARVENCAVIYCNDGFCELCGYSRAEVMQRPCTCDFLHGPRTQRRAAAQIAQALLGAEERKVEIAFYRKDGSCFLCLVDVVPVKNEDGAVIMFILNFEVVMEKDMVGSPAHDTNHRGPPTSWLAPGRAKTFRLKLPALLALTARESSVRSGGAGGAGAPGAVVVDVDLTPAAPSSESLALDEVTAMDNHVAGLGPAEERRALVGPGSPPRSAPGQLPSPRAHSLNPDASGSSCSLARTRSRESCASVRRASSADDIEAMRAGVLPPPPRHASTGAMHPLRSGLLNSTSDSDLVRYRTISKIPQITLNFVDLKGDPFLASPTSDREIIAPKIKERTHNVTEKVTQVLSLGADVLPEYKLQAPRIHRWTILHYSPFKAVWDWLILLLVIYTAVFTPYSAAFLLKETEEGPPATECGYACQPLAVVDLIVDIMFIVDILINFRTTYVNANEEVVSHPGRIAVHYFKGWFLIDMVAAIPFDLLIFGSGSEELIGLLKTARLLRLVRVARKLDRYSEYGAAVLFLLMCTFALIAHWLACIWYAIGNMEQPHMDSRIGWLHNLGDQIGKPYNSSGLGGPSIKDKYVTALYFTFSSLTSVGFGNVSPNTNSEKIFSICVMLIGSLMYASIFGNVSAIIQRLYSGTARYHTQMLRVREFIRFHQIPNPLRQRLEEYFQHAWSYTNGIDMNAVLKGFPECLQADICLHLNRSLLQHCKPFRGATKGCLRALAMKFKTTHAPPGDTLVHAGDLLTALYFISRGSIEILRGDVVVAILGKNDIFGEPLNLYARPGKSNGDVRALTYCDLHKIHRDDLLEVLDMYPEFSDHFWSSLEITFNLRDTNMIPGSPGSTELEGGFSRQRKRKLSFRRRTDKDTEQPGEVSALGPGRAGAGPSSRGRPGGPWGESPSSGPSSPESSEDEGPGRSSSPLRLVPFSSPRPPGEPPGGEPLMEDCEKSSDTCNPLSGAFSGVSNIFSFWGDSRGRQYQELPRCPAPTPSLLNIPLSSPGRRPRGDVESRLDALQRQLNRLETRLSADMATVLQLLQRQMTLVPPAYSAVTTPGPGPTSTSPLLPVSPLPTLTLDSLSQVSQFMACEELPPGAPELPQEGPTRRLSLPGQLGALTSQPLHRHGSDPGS
The target in series [2] is T2, κOR. The series is described as follows: PathHunter β-arrestin-2 recruitment assay at the κOR. It is filed as cell-based. As to conditions: FIG. 6. From the text:
Cell Lines and Cell Culture. To perform the HitHunter cAMP accumulation assay, Chinese hamster ovary cells (CHO-K1) stably expressing human μ-opioid receptor (OPRM1, catalog no. 95-0107C2, DiscoverX, Fremont, CA, USA), K-opioid receptor (OPRK1, catalog no. 95-0088C2, DiscoverX, Fremont, CA, USA), or 6-opioid receptor (OPRD1, catalog no. 95-0108C2, DiscoverX, Fremont, CA, USA) were maintained at 80% confluence in F-12 media supplemented with 10% fetal bovine serum, 1% penicillin/streptomycin/L-glutamine, and 800 μg/mL G418. To perform the PathHunter β-arrestin-2 recruitment assay, U2OS-human κ opioid receptor (κOR) cells stably expressing the κOR and β-arrestin-2 (RRID:CVCL_LA97, DiscoverX, Fremont, CA, USA) were maintained in McCoy's 5A media supplemented with 10% FBS and containing 500 μg/mL geneticin and 250 μg/mL hygromycin. All cells were grown 37° C. under 5% CO2 in a humidified incubator under sterile conditions in T75 flasks. During passaging, cells were dislodged from the flask following a 3-5 min incubation with 0.25% trypsin or non-enzymatic detachment reagent and subcultivated at ratios of 1:10 (CHO) and 3:10 (U2OS).
PathHunter β-arrestin-2 Recruitment Assay. The R-arrestin-2 recruitment assay was performed using U2OS-human (κOR) PathHunter R-arrestin-2 cells (DiscoverX) as previously described.^77
In general terms: Arrestin recruitment assays detect the binding of arrestin to an activated receptor.

The mark [3] stands for this setting: read-out: μOR cAMP inhibition EC50.
[4] abbreviates: read-out: κOR cAMP inhibition EC50.

Like-named read-outs stand apart in the source and are kept apart here.

T2 sequence (P41145 whole entry): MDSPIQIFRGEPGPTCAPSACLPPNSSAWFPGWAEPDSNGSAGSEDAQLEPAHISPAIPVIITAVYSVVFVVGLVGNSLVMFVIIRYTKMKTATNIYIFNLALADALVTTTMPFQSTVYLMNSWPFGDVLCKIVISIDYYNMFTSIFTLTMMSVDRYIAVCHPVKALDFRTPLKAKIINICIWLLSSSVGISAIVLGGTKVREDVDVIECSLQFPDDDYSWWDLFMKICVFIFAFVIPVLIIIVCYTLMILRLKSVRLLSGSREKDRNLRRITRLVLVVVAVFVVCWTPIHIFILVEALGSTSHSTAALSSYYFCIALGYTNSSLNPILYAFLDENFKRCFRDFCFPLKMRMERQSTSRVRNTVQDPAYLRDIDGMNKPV
T1 sequence (P35372 whole entry): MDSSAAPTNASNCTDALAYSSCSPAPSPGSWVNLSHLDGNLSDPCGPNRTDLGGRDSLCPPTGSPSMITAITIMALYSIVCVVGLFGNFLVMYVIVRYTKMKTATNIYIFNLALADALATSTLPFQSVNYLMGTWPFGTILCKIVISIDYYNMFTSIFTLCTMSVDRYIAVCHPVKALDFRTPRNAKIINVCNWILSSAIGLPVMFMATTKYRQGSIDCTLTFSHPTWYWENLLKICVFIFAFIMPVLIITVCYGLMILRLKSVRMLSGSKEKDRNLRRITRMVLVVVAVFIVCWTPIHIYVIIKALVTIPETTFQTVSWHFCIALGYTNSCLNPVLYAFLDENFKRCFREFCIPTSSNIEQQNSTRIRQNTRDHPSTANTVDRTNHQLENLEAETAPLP

The term Emax denotes the greatest response seen or fitted, relative to the assay's reference. On to `C/C=C1/C[N+]2(CCC)CC[C@]34C(=C(C(=O)OC)[C@H]1C[C@@H]32)Nc1ccccc14` (stereo partly drawn) [Compound 18, N-4-Propylakuammicine], for which the Emax at μOR and on κOR [1] was less than 10% each time.
Broadly, the EC50 is the concentration needed to bring the measured effect to its halfway point. As to `CC=C1CN2CCC34C(=C(C(=O)OC)C1CC23)Nc1ccc([N+](=O)[O-])cc14` (stereo not drawn) [Compound 8, 10-Nitroakuammicine], on μOR, the EC50 is 4000 nM and the Emax is less than 10%. In addition, the “βArr recruitment against GPCRome” value in the series with 320 non-olfactory GPCRs was “induced recruitment of a number of non-opioid targets”. Further, on κOR [1], the response was half-maximal at 160 nM (EC50), the “Selectivity index = μOR EC50/κOR EC50” value is given as 25 and the maximal effect (Emax) is 96 ± 5%.
In the case of `CC=C1CN2CCC34C(=C(C(=O)OC)C1CC23)Nc1ccc(C#N)cc14` (stereo not drawn) [Compound 7, 10-Cyanoakuammicine], at μOR, the EC50 is more than 10000 nM, the “agonist activity at the μOR” value is “without activating the μOR” and the Emax was less than 10%. Also, the EC50 at μOR (setting [3]) was more than 10000 nM. At κOR [1], the EC50 is 81 nM and the Emax turned out to be 102 ± 6%.
On to `C/C=C1/CN2CC[C@]34C(=C(C(=O)OC)[C@H]1C[C@H]23)Nc1ccc(-c2ccsc2)cc14` [Compound 6, 10-(3-Thienyl)akuammicine], for which, on μOR, the EC50 was in the range of 720 to 840 nM, the “μOR cAMP inhibition pEC50 ± SEM” value is recorded as 6.1 ± 0.1 and the Emax was 107 ± 3%. In addition, on μOR (setting [3]), the EC50 was 840 nM. For the same compound, on κOR [1], the “κOR cAMP inhibition pEC50 ± SEM” value amounted to 8.1 ± 0.1 and the Emax is 104 ± 3%. Also, at κOR [1] (setting [4]), the EC50 came out at 7.7 nM.
Take `C/C=C1/C[N+]2(C)CC[C@]34C(=C(C(=O)OC)[C@H]1C[C@@H]32)Nc1ccccc14` (stereo partly drawn) [Compound 16, N-4-Methylakuammicine]: the Emax on μOR and on κOR [1] was less than 10% throughout.
`C/C=C1/CN2CC[C@]34c5ccccc5NC3C(C(=O)OC)[C@H]1C[C@H]24` (stereo partly drawn) [Compound 14, 2,16-dihydroakuammicine]: the EC50 on μOR, at μOR (setting [3]), on κOR [1] and at κOR [1] (setting [4]) was more than 10000 nM each time. The Emax on μOR and at κOR [1] was less than 10% throughout. The “agonist activity at the κOR” value on κOR [1] is recorded as “all κOR agonist activity is abolished or significantly diminished”.
Regarding `CCC1CN2CCC34C(=C(C(=O)OC)C1CC23)Nc1ccc(Br)cc14` (stereo not drawn) [Compound 27, 10-Bromo-19,20-dihydroakuammicine], at μOR, the “μOR cAMP inhibition pEC50 ± SEM” value is listed as 6.0 ± 0.1 and the maximum response (Emax) stood at 107 ± 5%. Further, the EC50 on μOR (setting [3]) turned out to be 1100 nM. In addition, on κOR [1], the “Selectivity index = μOR EC50/κOR EC50” value was 35, the “κOR cAMP inhibition pEC50 ± SEM” value is on record as 7.5 ± 0.1 and the Emax was found to be 100 ± 5%. Further, the EC50 on κOR [1] (setting [4]) was 31 nM.
On to 19-Hydroxyalstolucine [Compound 12], for which, on μOR, the “agonist activity at the μOR” value was “no agonist activity”, the “μOR cAMP inhibition Emax ± SEM (%)” value is recorded as less than 10% and the “μOR cAMP inhibition pEC50 ± SEM” value was “— (key: — = no activity observed at 10 μM.)”. Also, the concentration giving a half-maximal response (EC50) at μOR (setting [3]) is more than 10000 nM. At κOR [1], the “agonist activity at the κOR” value was “no agonist activity”, the “κOR cAMP inhibition Emax ± SEM (%)” value is listed as less than 10% and the “κOR cAMP inhibition pEC50 ± SEM” value is “— (key: — = no activity observed at 10 μM.)”. At κOR [1] (setting [4]), the 50% effective concentration (EC50) is more than 10000 nM.
In the case of `CCC1CN2CCC34c5ccccc5NC3C(C(=O)OC)C1CC24` (stereo not drawn) [Compound 15, 2,16,19,20-tetrahydroakuammicine], the EC50 at μOR, on μOR (setting [3]), at κOR [1] and at κOR [1] (setting [4]) was more than 10000 nM throughout. The Emax on μOR and at κOR [1] was less than 10% each time. Moreover, at κOR [1], the “agonist activity at the κOR” value was “all κOR agonist activity is abolished or significantly diminished”.
Regarding `C=CC[N+]12CCC34C(=C(C(=O)OC)C(CC31)C(=CC)C2)Nc1ccc(Br)cc14` (stereo not drawn) [Compound 24, 10-Bromo-N-4-allylakuammicine], the EC50 was more than 10000 nM on μOR, more than 10000 nM at μOR (setting [3]) and 650 nM at κOR [1]. Further, the maximum response (Emax) at μOR is less than 10%; on κOR [1] it was 100 ± 7%.
Regarding `C/C=C1/CN2CC[C@]34C(=C(C(=O)OC)[C@H]1C[C@H]23)Nc1ccc(-c2ccccc2)cc14` [Compound 4, 10-Phenylakuammicine], on μOR, the concentration for a half-maximal effect (EC50) fell in the range of 720 to 840 nM, the “μOR cAMP inhibition pEC50 ± SEM” value stood at 6.1 ± 0.1 and the Emax was found to be 106 ± 6%. Also, the EC50 on μOR (setting [3]) turned out to be 780 nM. Further, at κOR [1], the “κOR cAMP inhibition pEC50 ± SEM” value came out at 7.8 ± 0.1 and the Emax was 101 ± 2%. For the same compound, the EC50 on κOR [1] (setting [4]) was 15 nM.
Regarding `CC=C1CN2CCC34c5cc(I)ccc5NC3C(C(=O)OC)C1CC24` (stereo not drawn) [Compound 22, 10-Iodo-2,16-dihydroakuammicine], the EC50 was more than 10000 nM at μOR, more than 10000 nM at μOR (setting [3]) and 24 nM at κOR [1].
With `C/C=C1/CN2CC[C@]34C(=C(C(=O)OC)[C@H]1C[C@H]23)Nc1ccccc14` [Compound 1, Akuammicine, reference compound], the maximal effect (Emax) at κOR [1] is 91 ± 7%. In addition, the “Ki (nM) at HERG” value on HERG was “— (“—” indicates compound produced less than 50% displacement of radioligand in primary binding screen at 10 μM.)”.
With `C=CC[N+]12CCC34C(=C(C(=O)OC)C(CC31)C(=CC)C2)Nc1ccccc14` (stereo not drawn) [Compound 17, N-4-Allylakuammicine], the EC50 on μOR, on μOR (setting [3]), at κOR [1] and on κOR [1] (setting [4]) was more than 10000 nM each time. The Emax at μOR and on κOR [1] was less than 10% in each case.
In the case of `C/C=C1/C[N+]2(CC3CC3)CC[C@]34C(=C(C(=O)OC)[C@H]1C[C@@H]32)Nc1ccc(Br)cc14` (stereo partly drawn) [Compound 25, 10-Bromo-N-4-cyclopropylmethylakuammicine], on μOR, the maximal effect (Emax) is less than 10%. In addition, on κOR [1], the “κOR cAMP inhibition pEC50 ± SEM” value was 6.7 ± 0.1 and the Emax came out at 94 ± 5%. Moreover, the concentration for a half-maximal effect (EC50) at κOR [1] (setting [4]) was 210 nM.
On to `C/C=C1/CN2CC[C@]34c5cc(Br)ccc5NC3C(C(=O)OC)[C@H]1C[C@H]24` (stereo partly drawn) [Compound 21, 10-Bromo-2,16-dihydroakuammicine], for which, on κOR [1], the “κOR cAMP inhibition pEC50 ± SEM” value was 7.3 ± 0.1 and the Emax was determined as 100 ± 4%. At κOR [1] (setting [4]), the EC50 worked out at 47 nM.
`COC(=O)C1=C2Nc3ccccc3[C@@]23CCN2C[C@@](O)([C@@H](C)O)[C@@H]1C[C@H]23` [Compound 10, 19R,20R-Dihydroxyakuammicine]: at μOR, the “agonist activity at the μOR” value is given as “no agonist activity”. In addition, on κOR [1], the “agonist activity at the κOR” value is reported as “no agonist activity”.
In the case of `C/C=C1/C[N+]2(Cc3ccccc3)CC[C@]34C(=C(C(=O)OC)[C@H]1C[C@@H]32)Nc1ccccc14` (stereo partly drawn) [Compound 20, N-4-Benzylakuammicine], at μOR, the “μOR cAMP inhibition pEC50 ± SEM” value came out at 5.6 ± 0.1 and the maximal effect (Emax) came out at 112 ± 6%. Besides, on μOR (setting [3]), the EC50 was determined as 2300 nM. The Emax at κOR [1] was less than 10%.
Turning to `CC[C@@H]1CN2CC[C@]34C(=C(C(=O)OC)[C@H]1C[C@H]23)Nc1ccccc14` [Compound 13, 19,20-dihydroakuammicine], on μOR, the “μOR cAMP inhibition Emax ± SEM (%)” value is less than 10% and the “μOR cAMP inhibition pEC50 ± SEM” value is on record as “— (key: — = no activity observed at 10 μM.)”. For the same compound, the EC50 at μOR (setting [3]) was more than 10000 nM. At κOR [1], the “κOR cAMP inhibition Emax ± SEM (%)” value was determined as 99 ± 9% and the “κOR cAMP inhibition pEC50 ± SEM” value is recorded as 5.8 ± 0.1. Moreover, the 50% effective concentration (EC50) at κOR [1] (setting [4]) was found to be 1600 nM.
With `CC=C1C[N+]2(C)CCC34C(=C(C(=O)OC)C1CC32)Nc1ccc(Br)cc14` (stereo not drawn) [Compound 23, 10-Bromo-N-4-methylakuammicine], the EC50 at μOR was more than 10000 nM; on μOR (setting [3]), more than 10000 nM; at κOR [1] it was 940 nM. Besides, the figures for the Emax on μOR and at κOR [1] were less than 10% and 102 ± 7%, respectively.
With `C/C=C1/CN2CC[C@]34C(=C(C(=O)OC)[C@H]1C[C@H]23)Nc1ccc(-c2ccoc2)cc14` [Compound 5, 10-(3-Furanyl)akuammicine], on μOR, the EC50 was in the range of 720 to 840 nM, the “μOR cAMP inhibition pEC50 ± SEM” value came out at 6.1 ± 0.2 and the Emax came out at 99 ± 12%. For the same compound, the 50% effective concentration (EC50) at μOR (setting [3]) was found to be 720 nM. For the same compound, the “βArr2 recruitment compared with U50,488” value at κOR [2] is on record as “significantly less recruitment of βArr2 than U50488 at concentrations <10 μM”. In addition, on κOR [1], the “fold increase in κOR potency relative to 1” value is recorded as > 1,300, the “κOR cAMP inhibition pEC50 ± SEM” value is listed as 9.1 ± 0.1 and the Emax stood at 102 ± 2%. Moreover, the concentration for a half-maximal effect (EC50) at κOR [1] (setting [4]) amounted to 0.88 nM.
With `CC=C1C[N+]2(CC3CC3)CCC34C(=C(C(=O)OC)C1CC32)Nc1ccccc14` (stereo not drawn) [Compound 19, N-4-Cyclopropylmethylakuammicine], the results for the EC50 at μOR, on μOR (setting [3]) and at κOR [1] were more than 10000 nM, more than 10000 nM and 4700 nM, respectively. The values for the Emax at μOR and on κOR [1] were less than 10% and 113 ± 24%, respectively. Further, on κOR [1], the “fold reduced κOR potency compared to 1” value is “about 4 fold”.
